ChEMBL document CHEMBL1201862, “PubChem BioAssay data set” (2004)
Active and inactive are the calls of the source.

How the values were obtained:
Cytochrome P450 1A2 = molecular target: T1, Cytochrome P450 1A2 (Homo sapiens, UniProt P05177);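 also: PubChem cytochrome P450 panel assay, CYP1A2 panel member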
T1 sequence (P05177 whole entry): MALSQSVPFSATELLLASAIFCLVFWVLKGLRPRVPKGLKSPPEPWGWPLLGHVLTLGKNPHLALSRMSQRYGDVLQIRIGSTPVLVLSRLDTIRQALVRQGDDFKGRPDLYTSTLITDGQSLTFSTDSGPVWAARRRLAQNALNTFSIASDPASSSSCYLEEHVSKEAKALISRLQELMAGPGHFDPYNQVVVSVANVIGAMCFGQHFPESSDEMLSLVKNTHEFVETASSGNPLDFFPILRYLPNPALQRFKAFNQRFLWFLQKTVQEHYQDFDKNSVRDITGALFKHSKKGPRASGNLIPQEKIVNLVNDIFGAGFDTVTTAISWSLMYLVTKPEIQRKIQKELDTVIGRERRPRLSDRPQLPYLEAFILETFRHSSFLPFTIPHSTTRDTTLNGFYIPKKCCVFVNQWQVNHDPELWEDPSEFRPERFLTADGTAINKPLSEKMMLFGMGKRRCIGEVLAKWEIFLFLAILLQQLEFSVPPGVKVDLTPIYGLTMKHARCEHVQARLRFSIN

[1] = molecular target: T2, Corticotropin-releasing factor receptor 2/Corticotropin-releasing factor-binding protein (Homo sapiens, UniProt P24387+Q13324); experiment: activators of CRF receptor 2 with binding protein – uHTS hits, confirmation (AID 602473); assay type: functional; details: read-out: EC50_Mean
T2 sequence (Q13324 whole entry): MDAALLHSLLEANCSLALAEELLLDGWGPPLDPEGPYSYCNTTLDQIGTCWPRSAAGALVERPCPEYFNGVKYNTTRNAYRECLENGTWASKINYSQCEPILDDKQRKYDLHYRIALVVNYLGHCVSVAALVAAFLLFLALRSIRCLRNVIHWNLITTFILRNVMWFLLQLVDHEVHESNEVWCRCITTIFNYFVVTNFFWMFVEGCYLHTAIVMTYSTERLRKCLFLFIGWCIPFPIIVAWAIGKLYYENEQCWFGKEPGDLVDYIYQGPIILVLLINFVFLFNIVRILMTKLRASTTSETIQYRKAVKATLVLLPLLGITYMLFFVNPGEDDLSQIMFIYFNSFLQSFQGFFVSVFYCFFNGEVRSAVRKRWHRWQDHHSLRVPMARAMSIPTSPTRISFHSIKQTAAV
T2 sequence (P24387 whole entry): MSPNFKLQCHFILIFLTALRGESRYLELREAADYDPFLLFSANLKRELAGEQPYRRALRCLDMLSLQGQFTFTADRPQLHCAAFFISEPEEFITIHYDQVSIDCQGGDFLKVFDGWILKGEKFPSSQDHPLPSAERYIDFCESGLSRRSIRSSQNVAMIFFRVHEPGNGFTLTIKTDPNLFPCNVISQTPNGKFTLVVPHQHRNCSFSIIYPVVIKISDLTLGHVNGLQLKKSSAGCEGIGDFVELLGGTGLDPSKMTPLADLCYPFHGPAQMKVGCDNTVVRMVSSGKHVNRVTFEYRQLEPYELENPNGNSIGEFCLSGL

[2] = microbe, parasite or virus in culture; assay type: functional; details: Mycobacterium tuberculosis
Cytochrome P450 2C9 = Cytochrome P450 2C9 (Homo sapiens, UniProt P11712)
Chain of Cytochrome P450 2C9 (P11712 whole entry): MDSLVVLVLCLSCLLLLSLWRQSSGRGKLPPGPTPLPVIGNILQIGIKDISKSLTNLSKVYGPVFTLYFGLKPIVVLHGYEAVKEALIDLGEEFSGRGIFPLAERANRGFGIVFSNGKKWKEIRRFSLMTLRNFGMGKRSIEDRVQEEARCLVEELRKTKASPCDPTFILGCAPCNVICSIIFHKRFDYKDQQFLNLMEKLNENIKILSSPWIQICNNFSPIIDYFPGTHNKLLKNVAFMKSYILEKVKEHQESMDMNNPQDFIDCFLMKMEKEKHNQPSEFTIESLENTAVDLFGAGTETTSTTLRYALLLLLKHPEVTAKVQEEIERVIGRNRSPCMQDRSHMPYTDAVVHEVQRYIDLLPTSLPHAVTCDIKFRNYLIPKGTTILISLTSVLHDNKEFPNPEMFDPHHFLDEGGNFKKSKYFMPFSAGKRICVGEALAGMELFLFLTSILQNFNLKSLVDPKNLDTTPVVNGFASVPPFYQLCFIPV

[3] = molecular target: FAD-linked sulfhydryl oxidase ALR (Homo sapiens, UniProt P55789); experiment: ALR-catalysed DTT oxidation blockers – biochemical, H2O2 detection, luminescence, cherry-pick, dose response (AID 493248)
Chain of FAD-linked sulfhydryl oxidase ALR (P55789 whole entry): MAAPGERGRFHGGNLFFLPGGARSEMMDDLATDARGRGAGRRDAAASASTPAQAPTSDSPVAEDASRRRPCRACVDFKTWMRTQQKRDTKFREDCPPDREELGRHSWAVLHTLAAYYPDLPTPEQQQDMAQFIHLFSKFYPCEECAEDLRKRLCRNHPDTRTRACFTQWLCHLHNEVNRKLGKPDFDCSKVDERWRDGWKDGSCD

[4] = NIH-3T3 fibroblast cytotoxicity, dose response, cytotoxicity control, cell-based, fluorescence, Alamar Blue, secondary assay (AID 2327); assay type: functional;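 also: NIH-3T3 mouse fibroblasts cultured with fluconazole at 8 µg/mL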
[5] = fluconazole-exposed Candida albicans growth modulators – fluorescence, retest, confirmation (AID 2467); assay type: functional, cell-based
[6] = molecular target: T3, RNA-binding protein pos-1 (Caenorhabditis elegans, UniProt G5EF15); experiment: disruptors of C. elegans POS-1 RNA interaction – biochemical, fluorescence polarization, dose response (AID 1964);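 also: purified POS-1 fused to maltose binding protein made in E. coli; potency of compounds blocking POS-1 binding to fluorescent RNA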
T3 sequence (G5EF15 whole entry): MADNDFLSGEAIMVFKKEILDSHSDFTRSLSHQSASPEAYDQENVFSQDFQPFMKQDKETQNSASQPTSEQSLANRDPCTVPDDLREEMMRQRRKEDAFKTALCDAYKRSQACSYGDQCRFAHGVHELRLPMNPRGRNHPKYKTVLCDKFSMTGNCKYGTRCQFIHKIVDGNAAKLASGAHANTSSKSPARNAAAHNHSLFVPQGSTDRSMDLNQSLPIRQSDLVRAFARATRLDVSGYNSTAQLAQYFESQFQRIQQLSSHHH

[7] = molecular target: T4, Zinc finger protein mex-5 (Caenorhabditis elegans, UniProt Q9XUB2); experiment: potency of MEX-5 RNA-binding blockers – biochemical, C. elegans, fluorescence polarization, dose response (AID 1960)
T4 sequence (Q9XUB2 whole entry): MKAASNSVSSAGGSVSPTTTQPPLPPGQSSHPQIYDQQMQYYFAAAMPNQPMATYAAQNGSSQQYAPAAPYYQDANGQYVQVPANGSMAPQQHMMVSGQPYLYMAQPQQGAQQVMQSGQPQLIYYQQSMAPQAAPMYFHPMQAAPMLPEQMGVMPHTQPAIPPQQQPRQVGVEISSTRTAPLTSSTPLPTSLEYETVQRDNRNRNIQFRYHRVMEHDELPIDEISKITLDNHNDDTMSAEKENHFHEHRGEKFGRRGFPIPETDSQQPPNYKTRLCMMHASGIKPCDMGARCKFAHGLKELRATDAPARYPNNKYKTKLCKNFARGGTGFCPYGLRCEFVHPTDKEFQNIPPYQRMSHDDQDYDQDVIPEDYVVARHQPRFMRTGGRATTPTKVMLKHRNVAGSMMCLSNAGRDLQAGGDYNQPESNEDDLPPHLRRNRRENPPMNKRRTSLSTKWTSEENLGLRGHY

Cytochrome P450 2C19 = Cytochrome P450 2C19 (Homo sapiens, UniProt P33261); experiment: Cytochrome panel assay with activity outcomes. Panel member name: p450-cyp2c19 Compounds with AC50 equal or less than 10 uM are considered active; assay type: functional; details: read-out: AC50
Chain of Cytochrome P450 2C19 (P33261 whole entry): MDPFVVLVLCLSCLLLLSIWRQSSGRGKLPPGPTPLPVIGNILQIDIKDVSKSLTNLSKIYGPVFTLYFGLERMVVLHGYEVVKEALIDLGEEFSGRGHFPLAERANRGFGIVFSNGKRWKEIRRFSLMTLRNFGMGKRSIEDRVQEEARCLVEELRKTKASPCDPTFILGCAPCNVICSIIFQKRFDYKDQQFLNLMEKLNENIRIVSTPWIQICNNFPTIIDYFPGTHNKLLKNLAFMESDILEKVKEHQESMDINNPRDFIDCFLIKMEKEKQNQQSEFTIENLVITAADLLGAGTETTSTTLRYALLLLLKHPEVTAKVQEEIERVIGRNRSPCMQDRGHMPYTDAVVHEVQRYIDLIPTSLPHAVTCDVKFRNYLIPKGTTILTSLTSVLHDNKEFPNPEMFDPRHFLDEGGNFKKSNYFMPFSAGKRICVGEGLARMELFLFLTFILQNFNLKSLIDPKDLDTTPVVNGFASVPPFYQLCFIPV

Cytochrome P450 2D6 = Cytochrome P450 2D6 (Homo sapiens, UniProt P10635);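 also: CYP2D6 member of a cytochrome P450 panel assay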
Chain of Cytochrome P450 2D6 (P10635 whole entry): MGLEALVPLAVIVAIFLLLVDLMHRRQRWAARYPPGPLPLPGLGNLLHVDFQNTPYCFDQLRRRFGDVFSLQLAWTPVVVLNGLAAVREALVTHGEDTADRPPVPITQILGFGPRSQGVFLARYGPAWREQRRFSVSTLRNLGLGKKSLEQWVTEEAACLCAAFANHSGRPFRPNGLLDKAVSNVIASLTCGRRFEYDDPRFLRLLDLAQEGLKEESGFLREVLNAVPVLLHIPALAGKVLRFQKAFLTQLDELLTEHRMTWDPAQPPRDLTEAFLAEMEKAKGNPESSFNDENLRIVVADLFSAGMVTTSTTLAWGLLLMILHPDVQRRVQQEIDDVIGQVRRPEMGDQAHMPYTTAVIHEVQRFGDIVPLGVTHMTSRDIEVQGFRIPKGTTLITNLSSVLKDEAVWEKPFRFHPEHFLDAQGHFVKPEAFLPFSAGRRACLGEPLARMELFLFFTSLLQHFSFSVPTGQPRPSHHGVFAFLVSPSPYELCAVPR

[8] = Luminescence Cell-Based Dose Retest to Confirm Inhibitors of Cancer Stem Cells. [Related pubchem assays (depositor defined):AID2717, AID2721]; assay type: functional; details: Homo sapiens

O=C1CS[C@@H](c2ccccc2Cl)c2cc(Cl)ccc2N1
AC50 (Cytochrome P450 1A2): 39.8 µM (inconclusive)

CC1=C/C(=C(/c2ccc(O)c(C)c2)c2ccccc2C(=O)O)C=CC1=O
AC50 (Cytochrome P450 1A2): 3.16 µM (inconclusive)

Cc1ccc(S(=O)(=O)N2CCC(=O)N(C(COCc3ccc(C(F)(F)F)cc3)Cc3ccccc3)CC2)cc1 (stereo not drawn)
EC50 [1]: 4.81 µM (active)

Cc1ccc(/C=C2\C(=O)Nc3ccccc32)o1
CC50 [2]: > 40 µM (active)

CNc1nc(NCCOC23CC4CC(CC(C4)C2)C3)nc(OCC(F)(F)F)n1
AC50 (Cytochrome P450 1A2): 12.6 µM (inconclusive)
AC50 (Cytochrome P450 2C9): 15.8 µM (inconclusive)

CCc1ccccc1N1C(=O)c2cccc3c(N4CCOCC4)c([N+](=O)[O-])cc(c23)C1=O
AC50 (Cytochrome P450 1A2): 10 µM (inconclusive)

Sc1nc(-c2ccccc2)c[nH]1
AC50 [3]: 0.904 µM (active)

COc1ccc(/C=C/C(=O)N(c2ccccn2)C2CCCCC2)cc1OC
EC50 [4]: > 150 µM (inactive)
EC50 [5]: > 38 µM (not active)

CCn1cc(C=C2C(=O)N(C)C(=O)N(C)C2=O)c2ccccc21
EC50 [6]: > 300 µM (not active)
EC50 [7]: > 300 µM (inconclusive)

COc1ccccc1NC(=O)/C(C#N)=C/c1cc([N+](=O)[O-])ccc1N1CCCC1
EC50 [6]: 7.27 µM (inconclusive)
EC50 [7]: 4.59 µM (inconclusive)
EC50 [1]: 7.66 µM (active)

O=C(CSc1nc2ccccc2[nH]1)NCCN1CCCCC1
AC50 (Cytochrome P450 2C19): 22.4 µM (inconclusive)
AC50 (Cytochrome P450 2D6): 1.78 µM (inconclusive)
AC50 (Cytochrome P450 1A2): 0.316 µM (inconclusive)

Nc1[nH]c(N=NC(=O)c2ccc(F)cc2)c2ccccc12
AC50 [3]: 0.24 µM (active)

CNCC[C@H](Oc1ccccc1C)c1ccccc1
AC50 (Cytochrome P450 1A2): 15.8 µM (inconclusive)

Nc1c(-c2ccccc2)cnn1-c1cccc([N+](=O)[O-])c1
AC50 [3]: 0.125 µM (active)
AC50 (Cytochrome P450 2C9): 28.2 µM (inconclusive)

COc1ccc(C(=O)Nc2ccccc2C(=O)Nc2ccccc2C(=O)O)cc1
EC50 [4]: > 160 µM (inactive)
EC50 [5]: 3.49 µM (active)

CC1=NN(c2nc(-c3ccc(Cl)cc3)cs2)C(=O)C1
AC50 [8]: 5.37 µM (active)

Cc1ccc(S(=O)(=O)Nc2ccccc2F)cc1C(=O)NNC(=O)c1ccccc1O
EC50 [6]: 149 µM (inconclusive)
EC50 [7]: 1.75 µM (inconclusive)

CC(=O)c1c(C)nc(-c2cccc([N+](=O)[O-])c2)n1O
EC50 [4]: 69.2 µM (active)
EC50 [5]: 4.84 µM (active)

c1ccc(NNC2=NCCCCC2)cc1
AC50 [8]: 0.898 µM (active)
AC50 [3]: 0.596 µM (active)

COc1ccc(-c2nc3cnc(N4CCNCC4)nc3n(Cc3cccc(OC)c3)c2=O)cc1
AC50 (Cytochrome P450 2C19): 39.8 µM (inconclusive)
AC50 (Cytochrome P450 2D6): 39.8 µM (inconclusive)
AC50 (Cytochrome P450 1A2): 31.6 µM (inconclusive)

Cc1noc(C)c1S(=O)(=O)NCCN1CCN(c2ccccc2)CC1
AC50 [3]: 3.33 µM (active)

C=CCN1C(=O)NC(=O)/C(=C/c2cc3c4c(c2)CCCN4CCC3)C1=O
AC50 [3]: 2.31 µM (active)

CCOc1nn(-c2ccc(Cl)cc2)c(O)c1/C=N/c1ccc(O)cc1
AC50 (Cytochrome P450 1A2): 3.55 µM (inconclusive)
AC50 (Cytochrome P450 2C9): 3.55 µM (inconclusive)

CN(C)c1ccc2c3c(ccc(N(C)C)c13)C(=O)OC2
AC50 [3]: 8.4 µM (active)

CC(NC(=O)CCl)c1ccc(Cl)c(Cl)c1 (stereo not drawn)
CC50 [2]: 8.91 µM (active)

O=C(CCl)Nc1cccn2ncnc12
CC50 [2]: 32.6 µM (active)

Cc1c(NC(=O)c2ccc([N+](=O)[O-])o2)cccc1-c1nc2ncccc2o1
CC50 [2]: > 40 µM (active)
AC50 [8]: 4 µM (active)

CCCn1c(NCc2ccc3c(c2)OCO3)nc2ccccc21
AC50 [3]: 18.9 µM (active)

O=C(CSc1nc(O)c2c(C(F)(F)F)cc(-c3cccs3)nc2n1)Nc1c(F)c(F)c(F)c(F)c1F
AC50 [8]: 1.04 µM (active)

CCN(CCNC(=O)C1CC(=O)N(CCc2ccccc2)C1)c1ccccc1 (stereo not drawn)
AC50 [3]: 0.288 µM (active)

C[C@@H](C(=O)NCc1ccc(S(C)(=O)=O)cc1)[C@H]1C[C@]1(C)[C@H](NC(=O)OCc1ccccc1)c1ccccc1
AC50 (Cytochrome P450 1A2): 12.6 µM (inconclusive)

COc1ccc(NC(=O)N2CCC3(CC2)CCN(C(=O)c2cnccn2)CC3)cc1
AC50 (Cytochrome P450 1A2): 10 µM (inconclusive)
AC50 (Cytochrome P450 2C9): 31.6 µM (inconclusive)

COc1c(Cl)cc(Cl)cc1CNCCNCCO
AC50 (Cytochrome P450 1A2): 28.2 µM (inconclusive)
AC50 (Cytochrome P450 2C9): 22.4 µM (inconclusive)

COc1cc(OC)cc(C(=O)N2CCCC(Nc3ccc(F)cc3)C2)c1 (stereo not drawn)
AC50 [3]: 1.97 µM (active)

O=[N+]([O-])c1cccc(-c2nnc(S)n2-c2ccc(Br)cc2)c1
AC50 [3]: 3.63 µM (active)

Nc1nnc(C(=O)c2ccccc2N)s1
EC50 [6]: 14.7 µM (active)
EC50 [7]: 3.86 µM (active)

C[C@@H]1Cc2c(O)c(O)cc(O)c2C(=O)O1
EC50 [6]: 104 µM (active)
EC50 [7]: 13.5 µM (active)

Cc1cc(=O)oc(C)c1C(=O)Nc1ccc2ncccc2c1
EC50 [1]: 24.2 µM (active)

C[C@H]([C@@H](N)C(=O)N[C@@H](C(=O)O)[C@@H]1O[C@H](n2ccc(=O)[nH]c2=O)[C@@H](O)[C@H]1O)[C@@H](O)c1ccc(O)cn1
EC50 [4]: > 150 µM (inactive)
EC50 [5]: 3.67 µM (active)

COC(=O)c1ccc(-n2c(CCC(=O)O)ccc2-c2ccc(C)cc2)cc1
EC50 [6]: > 300 µM (not active)
EC50 [7]: > 300 µM (not active)

COc1ccccc1C1C(C(C)=O)=C(C)N=c2s/c(=C\c3cc(OC)c(OC)c(OC)c3)c(=O)n21 (stereo not drawn)
EC50 [6]: > 300 µM (not active)
EC50 [7]: > 300 µM (not active)

CCn1c(CN2CCCCCC2=O)nnc1SCc1cnc(-c2ccccc2)s1
EC50 [4]: 68 µM (inconclusive)
EC50 [5]: 1.47 µM (active)

O=C(CNS(=O)(=O)c1ccc(Br)s1)NCC1COc2ccccc2O1 (stereo not drawn)
EC50 [4]: > 150 µM (inactive)
EC50 [5]: > 38 µM (not active)
